This note sets out measurements from patent US7169786B2, “Isoxazoline derivatives as anti-depressants” (priority 2001, dated 2007).

The structures appear in SMILES notation.

The target of one assay is T1, hα2A receptor (Homo sapiens, UniProt P08913).
T1 construct: expressed in transfected cells
T1 sequence (P08913 1-465): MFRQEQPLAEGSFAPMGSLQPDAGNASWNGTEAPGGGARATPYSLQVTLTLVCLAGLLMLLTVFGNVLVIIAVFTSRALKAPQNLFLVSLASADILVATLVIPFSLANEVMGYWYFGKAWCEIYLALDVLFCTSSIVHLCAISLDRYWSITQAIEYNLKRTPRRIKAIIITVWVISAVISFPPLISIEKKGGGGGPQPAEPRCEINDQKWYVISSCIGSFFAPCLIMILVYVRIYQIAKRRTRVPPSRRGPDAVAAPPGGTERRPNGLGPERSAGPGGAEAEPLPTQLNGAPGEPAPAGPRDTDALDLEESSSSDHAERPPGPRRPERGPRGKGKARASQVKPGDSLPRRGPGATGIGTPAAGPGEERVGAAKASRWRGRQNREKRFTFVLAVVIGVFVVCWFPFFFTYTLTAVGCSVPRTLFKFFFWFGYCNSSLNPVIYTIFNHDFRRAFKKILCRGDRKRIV
As to the kind of experiment: Radioligand binding experiment for hα2A receptor ([3H]-raulwolscine). The conditions noted are these: membranes of CHO cells expressing human α2A receptor, [3H]raulwolscine 1 nM; for IC50: read-out: hα2A pIC50 (converted). Here is the method: The interaction of the compounds of Formula (I) with hα2-receptors and h5-HT-transporters was assessed in in vitro radioligand binding experiments. In general, a low concentration of a radioligand with a high binding affinity for a particular receptor or transporter is incubated with a sample of a tissue preparation enriched in a particular receptor or transporter or with a preparation of cells expressing cloned human receptors in a buffered medium. During the incubation, the radioligand binds to the receptor or transporter. When equilibrium of binding is reached, the receptor bound radioactivity is separated from the non-bound radioactivity, and the receptor- or transporter-bound activity is counted. The interaction of the test compounds with the receptor is assessed in competition binding experiments. Various concentrations of the test compound are added to the incubation mixture containing the receptor- or transporter preparation and the radioligand. The test compound in proportion to its binding affinity and its concentration inhibits binding of the radioligand. The radioligand used for hα2A, hα2B and hα2C receptor binding was [^3H]-raulwolscine and for the h5-HT transporter was [^3H]paroxetine.
CHO cells, stabile transfected with human adrenergic-α2A-, -α2B or α2C receptor cDNA, were cultured in Dulbecco's Modified Eagle's Medium (DMEM)/Nutrient mixture Ham's F12 (ratio 1:1)(Gibco, Gent-Belgium) supplemented with 10% heat inactivated fetal calf serum (Life Technologies, Merelbeke-Belgium) and antibiotics (100 IU/ml penicillin G, 100 μg/ml streptomycin sulphate, 110 μg/ml pyruvic acid and 100 μg/ml L-glutamine). One day before collection, cells were induced with 5 mM sodiumbutyrate. Upon 80–90% of confluence, cells were scraped in phosphate buffered saline without Ca^2+ and Mg^2+ and collected by centrifugation at 1500×g for 10 min. The cells were homogenised in Tris-HCl 50 mM using an Ultraturrax homogenizer and centrifuged for 10 min at 23,500×g. The pellet was washed once by resuspension and rehomogenization and the final pellet was resuspended in Tris-HCl, divided in 1 ml aliquots and stored at −70° C.
Membranes were thawed and re-homogenized in incubation buffer (glycylglycine 25 mM, pH 8.0). […] Filters were rinsed extensively with ice-cold rinsing buffer (Tris-HCl 50 mM pH 7.4). Filter-bound radioactivity was determined by scintillation counting in a Topcount (Packard, Meriden, Conn.) and results were expressed as counts per minute (cpm). Non-specific binding was determined in the presence of 1 μM oxymetazoline for hα2A- and hα2B receptors and 1 μM spiroxatrine for hα2C receptors.
Data from assays in the presence of compound were calculated as a percentage of total binding measured in the absence of test compound. Inhibition curves, plotting percent of total binding versus the log value of the concentration of the test compound, were automatically generated, and sigmoidal inhibition curves were fitted using non-linear regression. The pIC50 values of test compounds were derived from individual curves.

The target in a further assay is T2, hα2B receptor (Homo sapiens, UniProt P18089).
T2 construct: expressed in transfected cells
T2 sequence (P18089 1-450): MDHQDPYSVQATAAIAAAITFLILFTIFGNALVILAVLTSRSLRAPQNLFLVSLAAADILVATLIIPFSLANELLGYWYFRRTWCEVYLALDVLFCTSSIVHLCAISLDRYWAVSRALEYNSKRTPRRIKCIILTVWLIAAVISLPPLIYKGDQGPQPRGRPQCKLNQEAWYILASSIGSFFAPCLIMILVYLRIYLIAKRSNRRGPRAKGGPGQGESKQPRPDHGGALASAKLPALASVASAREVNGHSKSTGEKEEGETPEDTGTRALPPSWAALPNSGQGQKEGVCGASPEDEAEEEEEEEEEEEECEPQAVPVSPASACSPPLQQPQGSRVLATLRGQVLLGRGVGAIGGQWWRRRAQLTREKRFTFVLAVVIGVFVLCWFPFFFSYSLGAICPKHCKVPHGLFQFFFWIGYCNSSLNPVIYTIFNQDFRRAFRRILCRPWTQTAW
As to the kind of experiment: Radioligand binding experiment for hα2B receptor ([3H]-raulwolscine). The conditions noted are these: membranes of CHO cells expressing human α2B receptor, [3H]raulwolscine 1 nM; for IC50: read-out: hα2B pIC50 (converted). The procedure, abridged:
(§1)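 Competition binding with [3H]-rauwolscine on membranes from CHO cells stably expressing human α2A, α2B or α2C receptors (sodium butyrate-induced), in 25 mM glycylglycine pH 8.0; filtration and scintillation counting.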

For a further assay, the target named is T3, hα2C receptor (Homo sapiens, UniProt P18825).
T3 construct: expressed in transfected cells
T3 sequence (P18825 1-462): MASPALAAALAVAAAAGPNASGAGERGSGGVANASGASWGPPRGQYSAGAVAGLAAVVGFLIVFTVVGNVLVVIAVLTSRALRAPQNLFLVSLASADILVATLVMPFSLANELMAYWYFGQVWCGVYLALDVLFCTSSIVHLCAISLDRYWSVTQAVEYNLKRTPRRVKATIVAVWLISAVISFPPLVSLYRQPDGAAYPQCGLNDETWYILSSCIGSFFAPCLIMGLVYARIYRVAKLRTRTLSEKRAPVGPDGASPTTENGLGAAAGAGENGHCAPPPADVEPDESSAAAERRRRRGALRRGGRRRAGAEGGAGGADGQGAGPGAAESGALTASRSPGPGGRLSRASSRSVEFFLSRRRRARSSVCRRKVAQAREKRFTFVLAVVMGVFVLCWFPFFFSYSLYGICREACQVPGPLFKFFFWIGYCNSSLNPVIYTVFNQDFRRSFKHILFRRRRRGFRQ
As to the kind of experiment: Radioligand binding experiment for hα2C receptor ([3H]-raulwolscine). The following applies: membranes of CHO cells expressing human α2C receptor, [3H]raulwolscine 1 nM; for IC50: read-out: hα2C pIC50 (converted). The essentials:
as §1

The next assay deals with T4, h5-HT transporter (Homo sapiens, UniProt P31645).
T4 construct: Human platelet membranes (Oceanix Biosciences Corporation, Hanover, Md., USA) were thawed; tissue Oceanix Biosciences Corporation, Hanover, Md., USA; host or cells: human platelet membranes
As to the kind of experiment: Radioligand binding experiment for 5-HT transporter ([3H]paroxetine, human platelet membranes). The conditions noted are these: human platelet membranes, [3H]paroxetine 0.5 nM; for IC50: read-out: 5HTT pIC50 (converted). The procedure, abridged:
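Competition binding of [^3H]paroxetine to human platelet membranes in Tris-HCl 50 mM, 120 mM NaCl, 5 mM KCl; filter-bound radioactivity counted.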

T4 sequence (P31645 whole entry): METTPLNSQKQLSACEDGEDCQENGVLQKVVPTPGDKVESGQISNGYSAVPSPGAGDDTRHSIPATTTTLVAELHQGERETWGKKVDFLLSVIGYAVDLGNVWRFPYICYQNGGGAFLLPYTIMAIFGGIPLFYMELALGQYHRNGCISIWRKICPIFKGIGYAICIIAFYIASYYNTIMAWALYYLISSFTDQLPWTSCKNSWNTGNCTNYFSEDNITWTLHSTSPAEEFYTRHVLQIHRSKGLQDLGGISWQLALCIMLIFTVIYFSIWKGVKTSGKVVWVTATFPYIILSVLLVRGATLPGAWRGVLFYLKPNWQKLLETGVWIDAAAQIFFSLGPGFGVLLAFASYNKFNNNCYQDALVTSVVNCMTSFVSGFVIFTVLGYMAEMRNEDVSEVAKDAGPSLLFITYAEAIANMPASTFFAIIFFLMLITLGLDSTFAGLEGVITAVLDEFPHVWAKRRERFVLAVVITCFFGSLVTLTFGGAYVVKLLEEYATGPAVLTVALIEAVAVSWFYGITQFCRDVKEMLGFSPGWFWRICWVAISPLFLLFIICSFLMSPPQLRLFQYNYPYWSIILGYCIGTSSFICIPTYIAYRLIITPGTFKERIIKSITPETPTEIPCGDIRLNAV

For the molecule `C(=Cc1ccccc1)CN1CCN(CC2ON=C3c4ccccc4CCC32)CC1` (stereo not drawn) [Comp 218], the IC50 at hα2A receptor was 182 nM; at hα2B receptor, 132 nM; on hα2C receptor, 1260 nM; at h5-HT transporter, 457 nM.
For `COc1cc2c(cc1OC)C1=NOC(CN3CCN(CC4=Cc5ccccc5CC4)CC3)C1CO2` (stereo not drawn) [Compound 21] the same measures were 1.62 nM, 18.6 nM, 1.05 nM and 1.2 nM.
In the same order, the values of `Oc1ccc2c(c1)OCC1C2=NOC1CN1CCN(Cc2ccc3ccccc3c2)CC1` (stereo not drawn) [Compound 268] are 1 nM, 5.5 nM, 8.91 nM and 5.75 nM.
As to `COc1cc2c(cc1OC)C1=NOC(CN(C=O)C3CCN(Cc4ccc5ccccc5c4)CC3)C1CO2` (racemic) [Compound 282], the “hα2A pIC50” value on hα2A receptor turned out to be 7.66. The “hα2B pIC50” value at hα2B receptor is on record as 7.26. Also, the “hα2C pIC50” value on hα2C receptor was 7.64. For the same molecule, the “5HTT pIC50” value on h5-HT transporter is reported as 8.06.
In the case of `COc1cc2c(cc1OC)C1=NOC(CN3CCN(CC=Cc4ccc(F)cc4)CC3)C1CO2` (stereo not drawn) [Compound 43], the IC50 on hα2A receptor was 102 nM; on hα2B receptor it was 64.6 nM; at hα2C receptor it was 138 nM; on h5-HT transporter, 15.8 nM.
In the same order, the values of `COc1cc2c(cc1OC)C1=NOC(CN3CCN(Cc4ccc5ccccc5n4)CC3)C1CO2` (stereo not drawn) [Compound 45] are 57.5 nM, 70.8 nM, 43.7 nM and 69.2 nM.
For `COc1cc2c(cc1OC)C1=NOC(CN3CCN(C/C=C/c4ccc(F)cc4F)CC3)C1CO2` (single isomer, unassigned) [Compound 185] the same measures were 145 nM, 77.6 nM, 29.5 nM and 12.6 nM.
In the same order, the values of `COc1cc2c(cc1OC)C1=NOC(CN3CCN(CCc4ccc5c(c4)OCO5)CC3)C1CO2` (stereo not drawn) [Compound 47] are 661 nM, 447 nM, 851 nM and 50.1 nM.
`CN1CC2C(=NOC2CN2CCN(Cc3ccc4ccccc4c3)CC2)c2ccccc21` (stereo not drawn) [Compound 266]: the “hα2A pIC50” value at hα2A receptor turned out to be 7.84. Further, the “hα2B pIC50” value at hα2B receptor came to 7.80. Further, at hα2C receptor, the “hα2C pIC50” value was 7.45. In addition, on h5-HT transporter, the “5HTT pIC50” value worked out at 8.88.
As to `COc1cc2c(cc1OC)C1=NOC(CN3CCN(C(C)/C=C/c4ccccc4)CC3)C1CO2` (single isomer, unassigned) [Compound 316], the IC50 at hα2A receptor was 10.5 nM; on hα2B receptor, 174 nM; on hα2C receptor, 120 nM; on h5-HT transporter, 407 nM.
For `C(=Cc1ccccc1)CN1CCN(CC2ON=C3c4cc5c(cc4OCC32)OCO5)CC1` (stereo not drawn) [Compound 278] the same measures were 3.24 nM, 7.24 nM, 6.92 nM and 245 nM.
In the same order, the values of `COc1cc2c(cc1OC)C1=NOC(CN3CCN(CC=Cc4ccc5ccccc5c4)CC3)C1CO2` (stereo not drawn) [Compound 181] are 282 nM, 776 nM, 324 nM and 23.4 nM.
In the same order, the values of `COc1ccc2c(c1)OCC1C2=NOC1CCN1CCN(Cc2ccc3ccccc3c2)CC1` (stereo not drawn) [Compound 280] are 91.2 nM, 447 nM, 380 nM and 8.13 nM.
`CCC(=Cc1ccccc1)CN1CCN(CC2ON=C3c4cc(OC)c(OC)cc4OCC32)CC1` (stereo not drawn) [Compound 154]: the IC50 at hα2A receptor was 53.7 nM; at hα2B receptor, 40.7 nM; on hα2C receptor, 87.1 nM; on h5-HT transporter it was 89.1 nM.
As for `COc1ccc2c(c1)CCC1C2=NOC1CN1CCN(CC=Cc2ccccc2)CC1` (stereo not drawn) [Comp 220], the IC50 was 7.59 nM at hα2A receptor, 14.1 nM on hα2B receptor, 43.7 nM at hα2C receptor and 66.1 nM at h5-HT transporter.
